{"source": "patent US20040138094A1", "about": "“Treatment regimes” (priority 2003, published 2004)", "key": {"[1]": {"test_system": "ABCA1 mRNA in THP1 macrophages", "assay": "ABCA1 mRNA expression by RTQ-PCR in THP1 macrophages", "format": "cell-based, human", "conditions": "for Induction of ABCA1 mRNA expression (in words): THP1 macrophages, 100 nM, FIG. 1A", "procedure": "(§1) THP1 human monocyte cells (ATCC TID-202), in 6-well plates at a density of 1×10^6 cells/well in RPMI 1640 medium containing 10% FBS, were differentiated into macrophages by treatment with PMA (100 ng/ml) for 5 days. 1BR3N human skin fibroblasts (ECACC 90020508) and FHS74 human intestinal cells (ATCC CCL-241) were plated in 6 well plates at a density of 1×10^6 cells/well in the recommended maintenance media. Cells were treated with vehicle (0.1% DMSO) or test compound for 48 h prior to harvesting. Total RNA was generated using the Qiagen RNeasy Mini Kit and DNase treated according to the manufacturer's protocol (Ambion). ABCA1 expression was analysed using RTQ-PCR on an ABI PRISM 7700 sequence detection system (P. E. Applied Biosystems). Primer/probe sequences used were as follows: ABCA1 forward primer 5′-[…]-3′, (Seq ID No:1) reverse primer 5′-[…]-3′, (Seq ID No:2) probe 5′FAM-[…]-TAMRA3′ (Seq ID No:3) Expression data were normalised to 18S as described by the vendor."}, "[2]": {"test_system": "THP1 macrophages", "assay": "ApoA1-specific cholesterol efflux from THP1 macrophages", "format": "cell-based, human", "procedure": "(§2) Following differentiation to macrophages, THP1 cells were washed in serum-free medium and incubated in 5% FBS medium containing 1 μCi/mL of [^3H]-cholesterol (New England Nuclear) and 0.2% fatty acid-free BSA (faf BSA) for a further 24 h. The cells were washed in serum-free medium and then incubated for 24 h in serum-free medium supplemented with 1.5% faf BSA±test compound or vehicle (0.1% DMSO). The equilibration medium was removed and the cells washed twice in serum-free medium. Serum-free DMEM containing compound±purified human apolipoprotein (apo) Al ([…], Athens Research & Technology) was added. The cells were maintained for 24 h before medium and cell extract samples were generated. Scintillation counting was performed to determine the percentage cellular cholesterol efflux±apoAl. 1BR3N human skin fibroblast cells were plated in 6-well plates at a density of 1×10^6 cells/well in DMEM medium containing 10% FBS and cultured for 24 h. Efflux studies were performed as in the THP1 macrophages except that the cells were maintained for 48 h before scintillation counting was performed."}, "[3]": {"test_system": "ABCA1 mRNA in 1BR3N human skin fibroblasts", "assay": "ABCA1 mRNA expression by RTQ-PCR in 1BR3N human skin fibroblasts", "format": "cell-based", "procedure": "as §1"}, "[4]": {"test_system": "1BR3N human skin fibroblasts", "assay": "ApoA1-specific cholesterol efflux from 1BR3N human skin fibroblasts", "format": "cell-based", "procedure": "as §2"}, "[5]": {"test_system": "ABCA1 mRNA in FHS74 human intestinal cells", "assay": "ABCA1 mRNA expression by RTQ-PCR in FHS74 human intestinal cells", "format": "cell-based", "procedure": "as §1"}, "[6]": {"test_system": "ABCA1 in macrophages", "conditions": "50 μM, reported in ref 16; cited from earlier work"}, "[7]": {"test_system": "macrophages", "conditions": "50 μM, reported in ref 16; cited from earlier work"}, "[8]": {"conditions": "THP1 macrophages, 100 nM, FIG. 1B"}}, "data": [{"compound": "CC(C)(Sc1ccc(CCN(CCCCC2CCCCC2)C(=O)NC2CCCCC2)cc1)C(=O)O", "note": "[GW7647, reference compound]", "values": [{"measurement": "Induction of ABCA1 mRNA expression (in words)", "setting": "[1]", "value": "only a weak effect"}, {"measurement": "Effect on cholesterol efflux (in words)", "setting": "[2]; [8]", "value": "ineffective"}]}, {"compound": "COC(=O)c1ccccc1N[C@@H](Cc1ccc(OCCc2nc(-c3ccccc3)oc2C)cc1)C(=O)O", "note": "[GW7845, reference compound]", "values": [{"measurement": "Induction of ABCA1 mRNA expression (in words)", "setting": "[1]", "value": "also induced ABCA1 expression"}, {"measurement": "Effect on cholesterol efflux (in words)", "setting": "[2]; [8]", "value": "ineffective"}]}, {"compound": "Cc1cc(SCc2sc(-c3ccc(C(F)(F)F)cc3)nc2C)ccc1OCC(=O)O", "note": "[GW501516, 2-(2-methyl-4[({4-methyl-2[4-(trifluoromethyl)phenyl]-1,3-thiazol-5-yl}methyl)sulfanyl]phenoxy}acetic acid]", "values": [{"measurement": "ABCA1 mRNA (% increase)", "setting": "[3]; 1BR3N fibroblast, 48 h, (GW-vehicle)/vehicle × 100, mean ± S.D., triplicate", "value": "240 ± 25", "unit": "%"}, {"measurement": "Increase in ABCA1 expression", "setting": "[3]; 1BR3N human skin fibroblasts", "value": 3.4, "unit": "fold"}, {"measurement": "ABCA1 mRNA (% increase)", "setting": "[1]; THP1 macrophage, 48 h, (GW-vehicle)/vehicle × 100, mean ± S.D., triplicate", "value": "460 ± 150", "unit": "%"}, {"measurement": "Induction of ABCA1 mRNA expression (in words)", "setting": "[1]", "value": "strong induction"}, {"measurement": "Cholesterol efflux (% increase)", "setting": "[4]; 1BR3N fibroblast, (GW-vehicle)/vehicle × 100, mean ± S.D., triplicate", "value": "110 ± 10", "unit": "%"}, {"measurement": "Increase in apoA1-specific cholesterol efflux", "setting": "[4]; 1BR3N human skin fibroblasts", "value": 2, "unit": "fold"}, {"measurement": "Cholesterol efflux (% increase)", "setting": "[2]; THP1 macrophage, (GW-vehicle)/vehicle × 100, mean ± S.D., triplicate", "value": "100 ± 15", "unit": "%"}, {"measurement": "Increase in cholesterol efflux to apoA1", "setting": "[2]; [8]", "value": 2, "unit": "fold"}, {"measurement": "Increase in ABCA1 expression", "setting": "[5]; FHS74 human intestinal cells", "value": 2.1, "unit": "fold"}, {"measurement": "ABCA1 mRNA (% increase)", "setting": "[5]; FHS74 intestinal, 48 h, (GW-vehicle)/vehicle × 100, mean ± S.D., triplicate", "value": "115 ± 30", "unit": "%"}]}, {"compound": "Cc1cccc(Nc2cc(Cl)nc(SCC(=O)O)n2)c1C", "note": "[Wy14,643]", "values": [{"measurement": "ABCA1 expression (in words)", "setting": "[6]", "value": "induces"}, {"measurement": "Cholesterol efflux from macrophages (in words)", "setting": "[7]", "value": "induces"}]}]}
